Values of other authors in patent US5773415A, “Use of des-aspartate-angiotensin I as an anti-cardiac hypertrophic agent” (National University of Singapore, priority 1995, dated 1998).

Test system: specific aminopeptidase
Conditions: homogenates of rat aorta and hypothalamus
For `O=C(O)CN(CCN(CC(=O)O)CC(=O)O)CC(=O)O` [EDTA], the “Inhibition of the aminopeptidase degrading angiotensin I to des-Aspartate-angiotensin I” value (shortened to “Inhibition”) is listed as “not inhibited”. In the case of `CC(C)C[C@@H](N)[C@H](O)C(=O)N[C@H](C(=O)N[C@H](C(=O)N[C@@H](CC(=O)O)C(=O)O)C(C)C)C(C)C` [amastatin], the “Inhibition” value is given as “not inhibited”. For `CC(C)C[C@H](NC(=O)[C@@H](O)[C@H](N)Cc1ccccc1)C(=O)O` [bestatin], the “Inhibition” value is given as “not inhibited”.
